Experimental data from patent US20100081689A1, “Methods and Compositions for the Treatment of Iron Toxicity” (Georgetown University, priority 2008, published 2010).

Key:
[1] = tested on: rat aortic rings; experiment: animal or person; type: in vivo, Sprague-Dawley rats; conditions: for relaxation response to acetylcholine at 100 nM in iron treated rats given antioxidant: 100 nM acetylcholine, iron sucrose plus Tempol (drinking water), N-acetylcysteine 140 mg/kg iv or Vitamin C 100 mg/kg iv, iron alone 22±10%; for Maximum relaxation of aortic ring in iron-treated animals given antioxidant: iron sucrose 14 mg/kg iv plus Tempol 2 mmol/L in drinking water 72 h or N-acetylcysteine 140 mg/kg iv, iron alone 46±14%
Procedure: Forty seven normal Sprague-Dawley rats (280-350 g) were included in this study. Twenty three rats were injected in the tail vein with 14 mg/kg iron sucrose (Venofer, American Regent) twenty four hours before dissection of the aortic ring.
Twenty four hours after iron sucrose injection, the rats were sacrificed by interperitoneal injection of 100 mg/kg Inactin. Blood was collected for measurement of markers of oxidative stress and the thoracic aorta isolated and placed in ice cold PSS.
The surrounding tissue of aorta was carefully dissected away and care taken to not damage the endothelium. The aorta was then cut into a 4-5 mm width transverse ring and then mounted isometrically in 10 mL organ bath containing oxygenated PSS warmed to 37° C. and gassed with air.
The aortic ring was suspended under a resting force of […] and allowed to equilibrate for 30 minutes before administration of any agents. The bath was perfused with fresh PSS and was washed with PSS after each test response to the administered agents. The aortic ring was preconstricted with 10 nM phenylephrine prior to the addition of acetylcholine, and allowed to equilibrate for another 30 minutes.
Isometric contraction was measured on an oscillographic recorder. Subsequently acetylcholine was added to the bath in increasing doses of 1 nM to 100 μM and the relaxation response to each dose was recorded as the percentage of the drop in the starting resting force. […] P<0.05 was considered significant.

[2] = tested on: MDA levels; conditions: CKD patients treated with iron gluconate; cited from earlier work
[3] = tested on: aortic ring; conditions: cited from earlier work; for iron-induced endothelial dysfunction of the blood vessel: rats, iron co-administered with the antioxidant
[4] = light stability of Tempol solutions; type: physicochemical; conditions: solutions left in sunlight
[5] = tested on: oxidative stress markers; conditions: cited from earlier work

For `CC(=O)N[C@@H](CS)C(=O)O` [N-acetylcysteine], the “relaxation response to acetylcholine at 100 nM in iron treated rats given antioxidant” value [1] is given as 42±13%, the “Maximum relaxation of aortic ring in iron-treated animals given antioxidant” value [1] is given as 69.9±13% and the “MDA level decrease after iron gluconate” value [2] is given as “not observed”. For the same compound, the “iron-induced endothelial dysfunction of the blood vessel” value [3] was “completely attenuated”.
For `CC1(C)CC(O)CC(C)(C)N1[O]` [Tempol, 4-hydroxy-2,2,6,6-tetramethyl-1-piperidine-1-oxyl], the “stability of solutions in sunlight” value [4] was “discolor when left in sunlight”, the “relaxation response to acetylcholine at 100 nM in iron treated rats given antioxidant” value [1] was 48±17% and the “Maximum relaxation of aortic ring in iron-treated animals given antioxidant” value [1] was 75±15%. For the same compound, the “iron-induced endothelial dysfunction of the blood vessel” value [3] was “completely attenuated”.
In the case of `O=C1O[C@H]([C@@H](O)CO)C(O)=C1O` [Vitamin C], the “relaxation response to acetylcholine at 100 nM in iron treated rats given antioxidant” value [1] is given as 41±8%, the “relaxation response to 100 nM through 100 μM of acetylcholine, addition to iron treatment” value ([1]; Vitamin C 100 mg/kg iv with iron sucrose, only statistically significant at 100 nM acetylcholine (FIG. 3)) is given as “increased the relaxation response” and the “reducing iron-induced oxidative stress markers” value ([5]; dialysis population) is given as “not been shown to be effective”. For the same compound, the “effect when co-administered with iron” value ([5]; subjects with physiologic Vitamin C levels) was “pro-oxidant effect”.
Compound `CC(=O)OCC[N+](C)(C)C` [acetylcholine] has an IC50 ([1]; Rattus norvegicus, iv, aortic rings preconstricted with 10 nM phenylephrine, all treatment groups, read-out: IC50 for all dose response curves (acetylcholine relaxation of aortic ring)) of 100 nM.
For iron sucrose, the “relaxation response of aortic ring to increasing doses of acetylcholine” value ([1]; rat, in vivo) was “significantly reduced”, the “relaxation response to acetylcholine at 100 nM” value ([1]; rat, in vivo) was 22±10% and the “Maximum relaxation of aortic ring (percentage of the drop in the starting resting force)” value ([1]; rat, in vivo, iv, 14 mg/kg) was 46±14%. For the same compound, the “reduction in aortic ring vasodilation in response to acetylcholine” value ([3]; rat, in vivo, iv) was 40%.
